PubChem BioAssay AID256 (DTP/NCI, 2004)
Toxic doses and inconclusive results are not listed. How the source made its calls: active means survival T/C of 150% or more; inactive means T/C below 125% in these data.

Tested on: CD2F1 mice, L1210 leukemia ip, survival T/C
Assay: NCI In Vivo Anticancer Drug Screen. Data for tumor model L1210 Leukemia (intraperitoneal) in CD2F1 (CDF1) mice
Conditions: higher = longer survival
In short: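 In this screen, transplantable tumors were grown in mice given either the compound or its vehicle. Results were expressed as the treated measurement relative to the control measurement.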

[1] = endpoint: mean survival time, dose: 100.0 mg/kg/injection, schedule: Q01DX001 (ip), vehicle: saline with Tween-80
[2] = endpoint: mean survival time, dose: 200.0 mg/kg/injection, schedule: Q01DX001 (ip), vehicle: saline with Tween-80
[3] = endpoint: mean survival time, dose: 400.0 mg/kg/injection, schedule: Q01DX001 (ip), vehicle: saline with Tween-80
[4] = endpoint: mean survival time, dose: 100.0 mg/kg/injection, schedule: Q01DX009 (ip), vehicle: saline with Tween-80
[5] = endpoint: mean survival time, dose: 100.0 mg/kg/injection, schedule: Q04DX003 (ip), vehicle: saline with Tween-80
[6] = endpoint: mean survival time, dose: 200.0 mg/kg/injection, schedule: Q01DX009 (ip), vehicle: saline with Tween-80
[7] = endpoint: mean survival time, dose: 200.0 mg/kg/injection, schedule: Q04DX003 (ip), vehicle: saline with Tween-80
[8] = endpoint: mean survival time, dose: 400.0 mg/kg/injection, schedule: Q04DX003 (ip), vehicle: saline with Tween-80
[9] = endpoint: mean survival time, dose: 25.0 mg/kg/injection, schedule: Q04DX002 (ip), vehicle: saline with Tween-80
[10] = endpoint: mean survival time, dose: 50.0 mg/kg/injection, schedule: Q04DX002 (ip), vehicle: saline with Tween-80
[11] = endpoint: mean survival time, dose: 100.0 mg/kg/injection, schedule: Q04DX002 (ip), vehicle: saline with Tween-80
[12] = endpoint: mean survival time, dose: 200.0 mg/kg/injection, schedule: Q04DX002 (ip), vehicle: saline with Tween-80
[13] = endpoint: mean survival time, dose: 12.5 mg/kg/injection, schedule: Q04DX003 (ip), vehicle: saline with Tween-80
[14] = endpoint: mean survival time, dose: 25.0 mg/kg/injection, schedule: Q04DX003 (ip), vehicle: saline with Tween-80
[15] = endpoint: mean survival time, dose: 50.0 mg/kg/injection, schedule: Q01DX009 (ip), vehicle: saline with Tween-80
[16] = endpoint: mean survival time, dose: 400.0 mg/kg/injection, schedule: Q01DX009 (ip), vehicle: saline with Tween-80

Measured: T/C

COC(=O)C1CCC[N+](C)(C)C1 (stereo not drawn)
inactive: endpoint: mean survival time, dose: 25.0 mg/kg/injection, schedule: Q01DX009 (ip), vehicle: saline 100 % of control | endpoint: mean survival time, dose: 50.0 mg/kg/injection, schedule: Q01DX009 (ip), vehicle: saline 93 % of control

NC1CCCCC(O)CCCC1 (stereo not drawn)
inactive: endpoint: mean survival time, dose: 12.5 mg/kg/injection, schedule: Q01DX001 (ip), vehicle: saline with Tween-80 95 % of control | endpoint: mean survival time, dose: 25.0 mg/kg/injection, schedule: Q01DX001 (ip), vehicle: saline with Tween-80 92 % of control | endpoint: mean survival time, dose: 50.0 mg/kg/injection, schedule: Q01DX001 (ip), vehicle: saline with Tween-80 97 % of control

CSc1ccccc1C(=O)OC(C)(C)C
inactive: [1] 96 % of control | [2] 103 % of control | [3] 103 % of control

COc1cc(CC#N)ccc1C
inactive: endpoint: mean survival time, dose: 12.5 mg/kg/injection, schedule: Q04DX003 (ip), vehicle: acetone 97 % of control | endpoint: mean survival time, dose: 25.0 mg/kg/injection, schedule: Q04DX003 (ip), vehicle: acetone 101 % of control | endpoint: mean survival time, dose: 50.0 mg/kg/injection, schedule: Q04DX003 (ip), vehicle: acetone 102 % of control

NC(=O)c1csc(C2OC(CO)C(O)C2O)[n+]1[O-] (stereo not drawn)
inactive: endpoint: median survival time, dose: 9.38 mg/kg/injection, schedule: Q01DX005 (ip), vehicle: saline 102 % of control | endpoint: median survival time, dose: 18.75 mg/kg/injection, schedule: Q01DX005 (ip), vehicle: saline 101 % of control | endpoint: median survival time, dose: 37.5 mg/kg/injection, schedule: Q01DX005 (ip), vehicle: saline 103 % of control | endpoint: median survival time, dose: 75.0 mg/kg/injection, schedule: Q01DX005 (ip), vehicle: saline 104 % of control | endpoint: median survival time, dose: 150.0 mg/kg/injection, schedule: Q01DX005 (ip), vehicle: saline 104 % of control

CCCCCCCCCCCCCCCCCC(=O)NNCCO
inactive: [4] 89 % of control | [5] 94 % of control | [6] 89 % of control | [7] 93 % of control | [8] 91 % of control

Oc1ccccc1C=NCC1CCCC[N-]1.Oc1ccccc1C=NCC1CCCC[N-]1.[Ni+2] (stereo not drawn)
inactive: [9] 101 % of control | [10] 98 % of control | [1] 96 % of control | [11] 96 % of control | endpoint: mean survival time, dose: 132.0 mg/kg/injection, schedule: Q01DX001 (ip), vehicle: saline with Tween-80 101 % of control | [2] 102 % of control | [12] 101 % of control | endpoint: mean survival time, dose: 300.0 mg/kg/injection, schedule: Q01DX001 (ip), vehicle: saline with Tween-80 107 % of control

NC(=S)N/N=C/c1c(O)ccc2ccccc12
inactive: [13] 98 % of control | [14] 95 % of control | endpoint: mean survival time, dose: 50.0 mg/kg/injection, schedule: Q04DX003 (ip), vehicle: saline with Tween-80 95 % of control

CNc1c(C)cc(C)c(NC)c1C
inactive: [9] 104 % of control | [10] 96 % of control | [11] 116 % of control

[Cl][Pt+2][Cl].[NH-]c1ccccc1C(F)(F)F.[NH-]c1ccccc1C(F)(F)F
inactive: endpoint: mean survival time, dose: 12.5 mg/kg/injection, schedule: Q04DX003 (ip), vehicle: distilled water + Tween-80 97 % of control | endpoint: mean survival time, dose: 25.0 mg/kg/injection, schedule: Q04DX003 (ip), vehicle: distilled water + Tween-80 97 % of control | endpoint: mean survival time, dose: 50.0 mg/kg/injection, schedule: Q04DX003 (ip), vehicle: distilled water + Tween-80 106 % of control | endpoint: mean survival time, dose: 100.0 mg/kg/injection, schedule: Q04DX003 (ip), vehicle: distilled water + Tween-80 114 % of control

Cc1ccc(CO)cc1C
inactive: [15] 101 % of control | [4] 97 % of control | [6] 101 % of control

O=C(Nc1ccccn1)OCc1ccccc1
inactive: [11] 112 % of control | [12] 101 % of control | endpoint: mean survival time, dose: 400.0 mg/kg/injection, schedule: Q04DX002 (ip), vehicle: saline with Tween-80 97 % of control

O=C(O)c1ccc2cc(O)ccc2c1
inactive: endpoint: mean survival time, dose: 100.0 mg/kg/injection, schedule: Q01DX009 (ip), vehicle: saline 100 % of control | endpoint: mean survival time, dose: 200.0 mg/kg/injection, schedule: Q01DX009 (ip), vehicle: saline 94 % of control

c1cc2c(cc1NC1=NCCO1)CCC2
inactive: endpoint: mean survival time, dose: 6.25 mg/kg/injection, schedule: Q04DX003 (ip), vehicle: saline with Tween-80 103 % of control | [13] 108 % of control | [14] 111 % of control

CCCOc1ccc(/C=N\N=C\c2ccc(OCCC)cc2)cc1
inactive: [5] 89 % of control | [7] 89 % of control | [8] 91 % of control

C=CC(C)(C)S(=O)[O-].C[c-]1[c-][c-][c-][c-]1.[C-]#[O+].[C-]#[O+].[Fe+6]
inactive: endpoint: mean survival time, dose: 50.0 mg/kg/injection, schedule: Q04DX002 (ip), vehicle: saline 109 % of control | endpoint: mean survival time, dose: 100.0 mg/kg/injection, schedule: Q04DX002 (ip), vehicle: saline 102 % of control

CCc1ccccc1N1CCN(C(=O)c2cc(OC)c(OC)c(OC)c2)CC1
inactive: endpoint: mean survival time, dose: 100.0 mg/kg/injection, schedule: Q01DX009 (ip), vehicle: acetone 118 % of control | endpoint: mean survival time, dose: 150.0 mg/kg/injection, schedule: Q01DX009 (ip), vehicle: acetone 124 % of control | endpoint: mean survival time, dose: 225.0 mg/kg/injection, schedule: Q01DX009 (ip), vehicle: acetone 90 % of control

O=C(O)Cc1ccccc1[N+](=O)[O-]
inactive: [1] 106 % of control | [2] 101 % of control | [3] 101 % of control

COC(=O)/C=C/c1ccc(OC(=O)c2ccccc2)cc1
inactive: [4] 95 % of control | [6] 96 % of control | [16] 98 % of control

Cc1cc(C)c(C(Cl)(Cl)Cl)c(C)c1Cl
inactive: endpoint: mean survival time, dose: 25.0 mg/kg/injection, schedule: Q01DX009 (ip), vehicle: saline with Tween-80 108 % of control | [15] 111 % of control | [1] 107 % of control

CCCCNC(=O)Nc1cccc2c(O)cccc12
inactive: endpoint: mean survival time, dose: 50.0 mg/kg/injection, schedule: Q01DX009 (ip), vehicle: DMSO 97 % of control

CC(=O)OCC(=O)[C@@]12OC(C)(C)O[C@@H]1C[C@H]1[C@@H]3CC(C=O)=C4C=C(OCCCl)CC[C@]4(C)[C@@]3(F)[C@@H](O)C[C@@]12C
inactive: endpoint: mean survival time, dose: 100.0 mg/kg/injection, schedule: Q04DX003 (ip), vehicle: acetone 103 % of control | endpoint: mean survival time, dose: 200.0 mg/kg/injection, schedule: Q04DX003 (ip), vehicle: acetone 105 % of control | endpoint: mean survival time, dose: 400.0 mg/kg/injection, schedule: Q04DX003 (ip), vehicle: acetone 102 % of control

CC(C)(C)c1ccc(C(=O)C2CC2)cc1
inactive: [5] 98 % of control | [7] 96 % of control

CC/C(C)=C(/C(=O)O)c1ccccc1
inactive: [4] 95 % of control | [6] 98 % of control | [16] 97 % of control

N#CC(C#N)=C1CCNc2ccccc21
inactive: [4] 96 % of control | [5] 101 % of control | [6] 94 % of control | [7] 103 % of control | [16] 90 % of control | [8] 97 % of control

O=C(Nc1cccc(C(F)(F)F)c1)c1cccc(Cl)c1
inactive: endpoint: mean survival time, dose: 100.0 mg/kg/injection, schedule: Q01DX009 (ip), vehicle: saline + alcohol 94 % of control | endpoint: mean survival time, dose: 100.0 mg/kg/injection, schedule: Q04DX003 (ip), vehicle: saline + alcohol 95 % of control | endpoint: mean survival time, dose: 200.0 mg/kg/injection, schedule: Q01DX009 (ip), vehicle: saline + alcohol 94 % of control | endpoint: mean survival time, dose: 200.0 mg/kg/injection, schedule: Q04DX003 (ip), vehicle: saline + alcohol 97 % of control | endpoint: mean survival time, dose: 400.0 mg/kg/injection, schedule: Q01DX009 (ip), vehicle: saline + alcohol 98 % of control | endpoint: mean survival time, dose: 400.0 mg/kg/injection, schedule: Q04DX003 (ip), vehicle: saline + alcohol 101 % of control
